{"source": "patent US20110110940A1", "about": "“Methods for Enhancing the Efficacy of Vascular Disrupting Agents” (OXIGENE, INC., priority 2008, published 2011)", "test_system": "GFP+ bone marrow cells in the viable tumor rim of LLC tumors", "assay": "Homing/invasion of GFP+ bone marrow cells (CEPs) to the viable tumor rim and incorporation into CD31+ tumor vasculature, confocal microscopy of LLC tumor sections", "assay_type": "in vivo, mice", "details": "3 days after treatment", "source_text": "Integrin ∘4β1 (VLA4) promotes the homing of circulating cells to the α4β1 ligand binding (VCAM) expressed at the tumor site (Jin et al. 2006. J Clin Invest 116:652-662). […] We determined whether α4β1 integrin contributes to CEP and possibly other types of bone-marrow pro-angiogenic cell invasion and homing to the viable tumor rim after VDA treatment. To this end, green fluorescent protein (GFP)positive bone marrow cells obtained from syngeneic UBI/GFP/BL6 donor mice (The Jackson Laboratory, Bar Harbor, Me.) were transplanted into lethally irradiated C57Bl/6 recipient mice (as described in Theise, et al. 2000. Hepatology 31:235-240). Three weeks later, mice were subcutaneously (s.c.) implanted with 0.5×10^6 Lewis Lung Carcinoma (LLC) cells (ATCC, Manassas, Va.).\nWhen tumors reached 500 mm^3, mice were treated with an integrin α4β1 specific blocking antibody (Jin 2006), CA1P, or a combination of the two agents. After 3 days, tumor volumes were measured, mice were sacrificed and tumors were removed for the evaluation of necrosis (FIG. 1A) and incorporation of bone marrow cells to the tumor vasculature (FIG. 1B). […] FIG. 1C provides tumor volumes measured three days after treatment and normalized to untreated control tumors. *: 0.05>p>0.01; **: p<0.01. Tumor size was assessed with Vernier calipers by using the formula width^2×length×0.5. […]", "data": [{"smiles": "COc1cc(/C=C\\c2ccc(OC)c(OP(=O)(O)O)c2OP(=O)(O)O)cc(OC)c1OC", "note": "[CA1P, combretastatin A-1 diphosphate]", "values": [{"measurement": "invasion/homing of GFP+ cells (bone marrow cells) in the viable tumor rim (FIG. 1B)", "value": "massive invasion of GFP^+ cells"}, {"measurement": "incorporation of GFP+ cells into blood vessels (colocalization of GFP+ and CD31+ cells, FIG. 1B)", "setting": "CD31 staining", "value": "some of which were found to incorporate into blood vessels"}]}]}
